Assay results taken from US20250082658A1, “CELL PROLIFERATION RETARDANT, COSMETIC CONTAINING SAME, AND CELL PROLIFERATION RETARDATION METHOD” (NATIONAL UNIVERSITY CORPORATION KAGAWA UNIVERSITY, priority 2022, published 2025).

What was measured:
U251 cells [1] = assay: Cell cycle evaluation by PI/RNase flow cytometry, U251; assay type: cell-based, human; details: 50 mM, 24 hours
Method: (§1) The proportion of cells in each cell cycle in medium alone (control) and 48 hours after administration of D-glucose or D-allose was compared by flow cytometry analysis.
(§2) Considering the possibility that growth inhibition of brain tumor cells may be caused by arrest of the cell cycle by D-allose, flow cytometry (FACS analysis) was carried out to identify changes in the cell cycle (see Yamaguchi F, Takata M. Kamitori K, et al. Rare sugar D-allose induces specific up-regulation of TXNIP and subsequent G1 cell cycle arrest in hepatocellular carcinoma cells by stabilization of p27kip1. Int J Oncol. 2008; 32(2):377-385). Specifically, the cell cycle was evaluated by Propidium Iodide (PI)/RNase Staining Solution (Cell Signaling Technology). The cells were cultured for 24 hours using DMEM, 50 mM D-glucose or 50 mM D-allose. The cultured cells were then recovered using trypsin and washed twice with PBS, and then fixed with 70% ethanol overnight at −20° C. After washing with PBS, the cells were stained in a dark room at room temperature for 30 minutes using 500 μl of PI reagent, washed with PBS, and then monitored for luminescence at 617 nm by flow cytometry. The data were analyzed using Kaluza analysis software (Ver. 1.2. Beckman Coulter), and the effects on the cell cycle were evaluated based on changes in the cell distribution rate at each phase of the cell cycle.

[2] = system: PK-1 pancreatic cancer cells; assay: Apoptosis by flow cytometry with annexin V staining, PK-1; assay type: cell-based, human; details: 50 mM
Method: Apoptosis was evaluated by flow cytometry using annexin V staining.

brain tumor cells = assay: CytoTell fluorogenic probe cell proliferation monitoring; assay type: cell-based, human; details: 50 mM; 96 hours after 24 hours probe uptake
Method: Next, CytoTell™, a fluorogenic probe for flow cytometry which is recently being used as a cell proliferation monitoring reagent, was taken up into the brain tumor cells for 24 hours, and the cells were allowed to stand for 96 hours either without administration of a sugar (control) or with administration of 50 mM D-glucose and 50 mM D-allose, and attenuation of the fluorogenic probe intensity in the cells was evaluated (FIG. 4-1).

U87 cells [3] = assay: Cell cycle evaluation by PI/RNase flow cytometry, U87; assay type: cell-based, human; details: 50 mM, 24 hours
Method: as §1, §2

U87 cells [4] = assay: WST-1 cell proliferation assay, U87; assay type: cell-based, human; details: 48 hours, 3, 5, 10, 30 or 50 mM
Method: (§3) The cell proliferation ability in medium alone (control) and 48 hours after administration of D-glucose or D-allose was compared by WST-1 assay. U251 cells or U87 cells, as cultured human brain tumor cells, were cultured for 48 hours without administration of a sugar (control) or with addition of D-allose or D-glucose at different concentrations (3, 5, 10, 30 or 50 mM), and then analyzed by WST-1 assay to compare the effects on cell proliferation.

[5] = system: human pancreatic cancer cell line PK-1; assay: Cell cycle visualization with tFucci(CA)5, PK-1; assay type: cell-based; details: 50 mm, 0 to 84 hours
Description: The human pancreatic cancer cell line PK-1 was transfected with tFucci(CA)5 (Plasmid #153521) (see Ando R., et al., Two new coral fluorescent proteins of distinct colors for sharp visualization of cell-cycle progression, bioRYiv, 2020, https://www.biorxiv.org/content/10.1101/2020.03.30.015156v2) purchased from Addgene (Massachusetts, USA), for cell cycle visualization. […] The cells were used to observe effects on the cell cycle of the human pancreatic cancer cell line PK-1 with and without addition of D-allose (50 mm).

[6] = system: cultured human PK-1 pancreatic cancer cells; assay: Cell cycle time course after nocodazole arrest and release, PK-1; assay type: cell-based; details: 50 mM, after removal of 50 nM nocodazole (12 hours)
Method: Culturing was carried out for 12 hours in the presence of 50 nM nocodazole, and the cell cycle was arrested. The nocodazole was removed to restart the cell cycle, while administering medium alone (control) or D-glucose or D-allose (50 mM), after which samples were periodically taken and the cell cycle ratio was analyzed by flow cytometry.
Shown is the cell cycle ratio (G0/1 phase, S phase and G2/M phase) for cultured human pancreatic cancer cells PK-1 cultured with the schedule in FIG. 8.
Culturing was carried out according to the schedule in FIG. 8, except for administering D-mannitol or allitol instead of D-glucose or D-allose.
First, 50 nM of nocodazole was reacted with cultured human PK-1 pancreatic cancer cells for 12 hours to preemptively stop the cell cycle. The nocodazole was then removed from the culture solution to begin restart of the cell cycle, thus allowing periodic observation of the cell cycle from a reset state. The effect of D-allose on the speed of the cell cycle was investigated in detail under these experimental conditions.
Considering the possibility that the growth inhibition effect on cultured human PK-1 pancreatic cancer cells by allitol may be via arrest of the cell cycle, changes in the cell cycle were identified using flow cytometry (FACS analysis) by the same method as Example 2.

[7] = system: human pancreatic cancer cells PANC-1; assay: Metabolome analysis of central energy metabolism (C-SCOPE), PANC-1; assay type: cell-based; details: 50 mM, 12 hours
Method: (§4) Cultured human pancreatic cancer cells PK-1 and PANC-1 (5.0×10^6) were cultured for 12 hours at 37° C. in a 5% CO2 atmosphere, either without addition of a sugar (control) or with addition of 50 mM D-glucose or D-allose. Samples of both cells were then prepared according to the protocol provided by Human Metabolome Technologies, Inc. (Tsuruoka City, Yamagata Prefecture. Japan) and measured for 116 substances (see Table 1) related to central energy metabolism (glycolysis, TCA cycle, amino acid metabolism and nucleic acid metabolism) using an Analysis Service provided by the same company (C-SCOPE (https://humanmetabolome.com/jpn/service/analysis/cscope/)), after which principal component analysis (PCA) (FIG. 15), heat map analysis (FIGS. 16 to 19) and pathway map analysis (FIG. 20) were carried out based on the measurement results.

U87 cells [8] = assay: Apoptosis by flow cytometry after annexin V staining, U87; assay type: cell-based, human; details: doses that induce growth inhibition, 48 hours
Method: (§5) The proportion of apoptotic cells in medium alone (control) and 48 hours after administration of D-glucose or D-allose was compared by flow cytometry analysis of the cells stained with annexin V. In order to elucidate the mechanism of the growth inhibition effect on brain tumor cells by D-allose, the cells were evaluated for apoptosis by flow cytometry after annexin V staining (FIG. 2).

[9] = system: PK-1 pancreatic cancer cells; assay: Cell cycle evaluation by PI/RNase flow cytometry, PK-1; assay type: cell-based, human; details: 50 mM
Method: Considering the possibility that the growth inhibition effect on cultured human PK-1 pancreatic cancer cells by D-allose may be via arrest of the cell cycle, changes in the cell cycle were identified using flow cytometry (FACS analysis). Specifically, PK-1 cells were brought to a serum-starved state overnight and then fixed with 70% ethanol overnight at −20° C. For staining of the cellular DNA, the cells obtained as a centrifuged pellet were resuspended in 450 μL of propidium iodide (PI)/RNase solution (Cell Signaling Technology, Danvers, MA, USA), and cultured in a dark environment at room temperature for 30 minutes. Analysis was then carried out with a flow cytometer (Cytomics FC500 flow cytometry system, Beckman Coulter, Indianapolis, IN, USA) using 10,000 cells per sample.

[10] = system: human pancreatic cancer cells PK-1; assay: Metabolome analysis of central energy metabolism (C-SCOPE), PK-1; assay type: cell-based; details: 50 mM, 12 hours
Method: as §4

cancer cell lines = details: reported (NPL 5); cited from earlier work
[11] = system: glycolysis in cultured human PK-1 pancreatic cancer cells; assay: Glycolysis evaluation with XFe24 extracellular flux analyzer (OCR, ECAR); assay type: cell-based
Description: In the same manner as Example 2, an XFe24 extracellular flux analyzer (24-well) by Agilent Technologies (previously Seahorse Bioscience) was used to measure the oxygen consumption rate (OCR value) and extracellular acidification rate (ECAR value) of cultured human PK-1 pancreatic cancer cells and examine effects on the glycolysis.

PK-1 cells = assay: WST-1 cell proliferation assay, PK-1; assay type: cell-based, human; details: 48 hours
Method: PK-1 cells, as cultured human pancreatic cancer cells, were cultured for 48 hours with addition of D-allose or D-glucose at 25 or 50 mM concentration, and then analyzed by WST-1 assay to compare the effects on cell proliferation. PK-1 cells, as cultured human pancreatic cancer cells, were cultured for 48 hours with addition of allitol or D-mannitol at 50 mM concentration, and then analyzed by WST-1 assay to compare the effects on cell proliferation.

cell cycle = details: reported (PTL 1); cited from earlier work
U251 cells [12] = assay: WST-1 cell proliferation assay, U251; assay type: cell-based, human; details: 48 hours, 3, 5, 10, 30 or 50 mM
Method: as §3

U251 cells [13] = assay: Apoptosis by flow cytometry after annexin V staining, U251; assay type: cell-based, human; details: doses that induce growth inhibition, 48 hours
Method: as §5

[14] = known (PTL 2); cited from earlier work

SMILES: O=C[C@H](O)[C@H](O)[C@H](O)[C@H](O)CO [D-allose]
- arrest of the cell cycle (U251 cells [1]): did not induce arrest of the cell cycle
- apoptosis (annexin V) [2]: apoptosis was not produced
- attenuation of fluorogenic probe intensity in the cells (brain tumor cells): notably inhibited attenuation of fluorescent probe intensity
- arrest of the cell cycle (U87 cells [3]): did not induce arrest of the cell cycle
- cell proliferation ability (WST-1) (U87 cells [4]): dose-dependent cell growth inhibitory effect
- effect on the cell cycle (tFucci(CA)5 fluorescence microscopy) [5]: delay the cell cycle, primarily at transition from the G1 phase to the S phase
- transition from the G0/1 phase to the S phase [6]: significant delaying of transition from the G0/I phase to the S phase
- transition to the G2/M phase [6]: This delaying effect was also exhibited for transition to the G2/M phase
- fructose 1,6-diphosphate [7]: reducing
- fructose 1-phosphate in the polyol pathway [7]: increased
- fructose 6-phosphate in the glycolysis [7]: increased
- glucose 6-phosphate in the glycolysis [7]: increased
- intracellular metabolic profile (PCA, heat map) [7]: significantly altered intracellular metabolic profile
- induction of apoptosis (annexin V) (U87 cells [8]): apoptosis is not induced
- G0/G1 phase ratio [9]: slight increase
- fructose 1,6-diphosphate [10]: reducing
- fructose 1-phosphate in the polyol pathway [10]: increased
- fructose 6-phosphate in the glycolysis [10]: increased
- glucose 6-phosphate in the glycolysis [10]: increased
- intracellular metabolic profile (PCA, heat map) [10]: significantly altered intracellular metabolic profile
- proliferation of cancer cell lines (cancer cell lines): can inhibit proliferation of cancer cell lines
- glycolysis in the cells ([11]; 50 mM for 16 hours): notably inhibited the glycolysis
- glycolytic capacity, or its reserve capacity ([11]; 50 mM for 16 hours): lowered
- cell proliferation (WST-1) (PK-1 cells; 25 or 50 mM): exhibited a cell growth inhibitory effect
- G2 phase of the cell cycle (cell cycle): delaying the “G2 phase” of the cell cycle
- cell proliferation ability (WST-1) (U251 cells [12]): dose-dependent cell growth inhibitory effect
- induction of apoptosis (annexin V) (U251 cells [13]): apoptosis is not induced

SMILES: OC[C@@H](O)[C@@H](O)[C@@H](O)[C@@H](O)CO [allitol, (2S,3S,4R,5R)-hexane-1,2,3,4,5,6-hexaol]
- apoptosis (annexin V) [2]: no apoptosis had occurred
- transition from the G0/1 phase to the S phase [6]: significantly delayed the transition from the G0/1 phase to the S phase
- transition to the G2/M phase [6]: This delaying effect was also exhibited for transition to the G2/M phase
- fat accumulation [14]: fat accumulation-inhibiting effect
- glycolysis in the cells ([11]; 50 mM for 18 hours): inhibited the glycolysis
- glycolytic capacity, or its reserve capacity ([11]; 50 mM for 18 hours): significantly lowered
- cell proliferation (WST-1) (PK-1 cells; 50 mM): exhibited a cell proliferation inhibiting effect
